Values quoted from earlier work in US20080261937A1, “PHARMACEUTICAL COMPOSITIONS AND METHOD FOR TREATING PEDIATRIC HYPOGONADISM” (priority 2007, published 2008).

C[C@]12CC[C@H]3[C@@H](CCC4=CC(=O)CC[C@@]43C)[C@@H]1CC[C@@H]2O [testosterone]
bound to proteins in the blood (circulating testosterone): 98%
share bound weakly to albumin (in males): 60%
share of binding to sex hormone binding globulin (SHBG) (in males): approximately 40%
